In patent US20190030018A1 (Celgene Corporation, priority 2017, published 2019):

Tested on: 563 solid tumor cell lines
Assay: Luminex assay in PRISM, 5 days treatment (AUC)
Type: cell-based
Parameters: AUC: scale not given here
Protocol: The AUC values provided in Table 80 below were calculated based on the Median Fluorescent Intensity values, the primary read out of the Luminex assay in PRISM. The following parameters were used in this assay: • 8 point dose was used in triplicate • max concentration of 10 μM was used with serial 4-fold dilutions (low of […]) • 563 adherent cell lines in 23 pools. • treatment duration was 5 days.

SMILES: O=C1CCC(N2Cc3cc(CNC(=O)C(F)(F)c4ccc(Cl)cc4)ccc3C2=O)C(=O)N1 (stereo not shown) [Compound 1, 2-(4-chlorophenyl)-N-((2-(2,6-dioxopiperidin-3-yl)-1-oxoisoindolin-5-yl)methyl)-2,2-difluoroacetamide]
- AUC (MON_SOFT_TISSUE): 0.789
- AUC (MPP89_PLEURA): 0.822
- AUC (NB1_AUTONOMIC_GANGLIA): 0.096
- AUC (NCIH23_LUNG): 0.951
- AUC (NCIH28_PLEURA): 0.936
- AUC (NCIH226_LUNG): 0.637
- AUC (NCIH322_LUNG): 0.714
- AUC (NCIH441_LUNG): 0.755
- AUC (NCIH446_LUNG): 0.820
- AUC (NCIH460_LUNG): 0.917
- AUC (NCIH520_LUNG): 0.562
- AUC (NCIH522_LUNG): 0.974
- AUC (NCIH596_LUNG): 0.893
- AUC (NCIH647_LUNG): 0.957
- AUC (NCIH650_LUNG): 0.854
- AUC (NCIH661_LUNG): 0.819
- AUC (NCIH747_LARGE_INTESTINE): 0.836
- AUC (NCIH838_LUNG): 0.834
- AUC (NCIH841_LUNG): 0.848
- AUC (NCIH1048_LUNG): 0.116
- AUC (NCIH1299_LUNG): 0.806
- AUC (NCIH1339_LUNG): 0.815
- AUC (NCIH1355_LUNG): 0.878
- AUC (NCIH1373_LUNG): 0.959
- AUC (NCIH1435_LUNG): 0.862
- AUC (NCIH1437_LUNG): 0.882
- AUC (NCIH1563_LUNG): 0.140
- AUC (NCIH1568_LUNG): 0.790
- AUC (NCIH1573_LUNG): 0.995
- AUC (NCIH1581_LUNG): 0.552
- AUC (NCIH1623_LUNG): 0.997
- AUC (NCIH1648_LUNG): 0.828
- AUC (NCIH1650_LUNG): 0.835
- AUC (NCIH1693_LUNG): 0.949
- AUC (NCIH1703_LUNG): 0.879
- AUC (NCIH1793_LUNG): 0.290
- AUC (NCIH1915_LUNG): 0.876
- AUC (NCIH1944_LUNG): 0.911
- AUC (NCIH1975_LUNG): 0.866
- AUC (NCIH2009_LUNG): 0.760
- AUC (NCIH2030_LUNG): 0.839
- AUC (NCIH2073_LUNG): 0.878
- AUC (NCIH2077_LUNG): 0.855
- AUC (NCIH2087_LUNG): 0.866
- AUC (NCIH2110_LUNG): 0.837
- AUC (NCIH2126_LUNG): 0.820
- AUC (NCIH2170_LUNG): 0.887
- AUC (NCIH2172_LUNG): 0.794
- AUC (NCIH2196_LUNG): 0.870
- AUC (NCIH2228_LUNG): 0.851
- AUC (NCIH2347_LUNG): 0.324
- AUC (NCIH2444_LUNG): 0.620
- AUC (NCIH2452_PLEURA): 0.843
- AUC (NCIN87_STOMACH): 0.881
- AUC (NUGC3_STOMACH): 0.261
- AUC (NUGC4_STOMACH): 0.839
- AUC (OAW28_OVARY): 0.814
- AUC (OC314_OVARY): 0.915
- AUC (OC316_OVARY): 0.872
- AUC (OE19_OESOPHAGUS): 0.808
- AUC (OE21_OESOPHAGUS): 0.893
- AUC (OE33_OESOPHAGUS): 0.847
- AUC (ONS76_CENTRAL_NERVOUS_SYSTEM): 0.811
- AUC (OSRC2_KIDNEY): 0.842
- AUC (OV7_OVARY): 0.597
- AUC (OV56_OVARY): 0.874
- AUC (OV90_OVARY): 0.939
- AUC (OVCAR8_OVARY): 0.844
- AUC (OVISE_OVARY): 0.630
- AUC (OVKATE_OVARY): 0.851
- AUC (OVSAHO_OVARY): 0.617
- AUC (OVTOKO_OVARY): 0.907
- AUC (PANC1_PANCREAS): 0.781
- AUC (PANC0203_PANCREAS): 0.927
- AUC (PANC0327_PANCREAS): 0.813
- AUC (PANC0403_PANCREAS): 0.877
- AUC (PANC0504_PANCREAS): 0.245
- AUC (PANC1005_PANCREAS): 0.540
- AUC (PATU8902_PANCREAS): 0.145
- AUC (PATU8988T_PANCREAS): 0.075
- AUC (PC3_PROSTATE): 0.735
- AUC (PC14_LUNG): 0.500
- AUC (PECAPJ15_UPPER_AERODIGESTIVE_TRACT): 0.877
- AUC (PECAPJ41CLONED2_UPPER_AERODIGESTIVE_TRACT): 0.719
- AUC (PECAPJ49_UPPER_AERODIGESTIVE_TRACT): 0.843
- AUC (PEDS005TADH_KIDNEY): 0.448
- AUC (PEDS015T_SOFT_TISSUE): 0.814
- AUC (PK1_PANCREAS): 0.859
- AUC (PK45H_PANCREAS): 0.843
- AUC (PK59_PANCREAS): 0.778
- AUC (PLCPRF5_LIVER): 0.833
- AUC (PSN1_PANCREAS): 0.820
- AUC (QGP1_PANCREAS): 0.976
- AUC (RCC10RGB_KIDNEY): 0.801
- AUC (RDES_BONE): 0.571
- AUC (RD_SOFT_TISSUE): 0.769
- AUC (RERFLCAD1_LUNG): 0.782
- AUC (RERFLCAD2_LUNG): 0.874
- AUC (RERFLCAI_LUNG): 0.859
- AUC (RERFLCKJ_LUNG): 0.824
- AUC (RKN_SOFT_TISSUE): 0.988
- AUC (RKO_LARGE_INTESTINE): 0.847
- AUC (RL952_ENDOMETRIUM): 0.403
- AUC (RMUGS_OVARY): 0.857
- AUC (RPMI7951_SKIN): 0.786
- AUC (RT112_URINARY_TRACT): 0.766
- AUC (RVH421_SKIN): 0.839
- AUC (S117_SOFT_TISSUE): 0.866
- AUC (SBC5_LUNG): 0.948
- AUC (SCC25_UPPER_AERODIGESTIVE_TRACT): 0.782
- AUC (SF126_CENTRAL_NERVOUS_SYSTEM): 0.862
- AUC (SF295_CENTRAL_NERVOUS_SYSTEM): 0.917
- AUC (SF539_CENTRAL_NERVOUS_SYSTEM): 0.888
- AUC (SH4_SKIN): 0.537
- AUC (SH10TC_STOMACH): 0.886
